Here are results for 21 molecules from US10590113B2, “6-hydroxy-4-oxo-1,4-dihydropyrimidine-5-carboxamides as APJ agonists” (priority 2016, dated 2020).

For this test, the target named is T1, human APJ receptor (Homo sapiens, UniProt P35414).
T1 construct: expressed in transfected cells; host or cells: HEK293
T1 sequence (P35414 1-380): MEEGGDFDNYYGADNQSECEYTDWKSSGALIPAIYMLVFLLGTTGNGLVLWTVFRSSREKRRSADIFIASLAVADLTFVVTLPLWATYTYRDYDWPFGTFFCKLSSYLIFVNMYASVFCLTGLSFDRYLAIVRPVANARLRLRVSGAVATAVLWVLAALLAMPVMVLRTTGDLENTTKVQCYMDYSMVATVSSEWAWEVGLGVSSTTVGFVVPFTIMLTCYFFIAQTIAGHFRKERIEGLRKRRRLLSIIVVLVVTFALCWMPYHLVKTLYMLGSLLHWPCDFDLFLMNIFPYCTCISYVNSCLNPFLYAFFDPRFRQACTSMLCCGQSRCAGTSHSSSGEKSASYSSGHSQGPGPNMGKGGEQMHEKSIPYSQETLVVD
The test is described as follows: Intracellular cAMP Accumulation Assay (APJ hcAMP, HTRF). The format is cell-based. The method in brief: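 Stably transfected HEK293 cells (5,000/well) incubated 30 min at room temperature with serially diluted compound, […] and 2 μM forskolin. cAMP measured by HTRF after 60 min with detection reagents, quantified against a cAMP standard curve; EC50 from variable-slope sigmoidal fit of inhibition of forskolin-stimulated cAMP.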
On the technique in general: Time-resolved FRET reads energy transfer from a long-lived donor to a nearby acceptor.

Where [1] appears, read: human APJ, cAMP accumulation, potency range class, read-out: hAPJ cAMP EC50 Potency range.
[2] abbreviates: read-out: hAPJ cAMP EC50 Potency range.
[3] abbreviates: HEK293 cells stably expressing human APJ receptor, inhibition of forskolin-mediated cAMP production, read-out: Human APJ cAMP EC50 potency range.
Where [4] appears, read: human APJ, intracellular cAMP accumulation, read-out: hAPJ cAMP EC50 Potency range.

Each structure is given as a SMILES string. Read-outs that look alike come from different tables or passages of the source.

The EC50 is the concentration needed to bring the measured effect to its halfway point.

`CCOCc1nc(=O)c(C(=O)N2CCC(c3ccccc3C#N)C2)c(O)n1-c1c(OC)cccc1OC` (single isomer, unassigned) [Example 362, 2-(1-(1-(2,6-dimethoxyphenyl)-2-(ethoxymethyl)-6-hydroxy-4-oxo-1,4-dihydropyrimidine-5-carbonyl)pyrrolidin-3-yl)benzonitrile]: the EC50 under setting [1] was 0.01 to 10 nM.

Consider `CCOCc1nc(=O)c(C(=O)N2CCC(c3ccccc3C#N)C2)c(O)n1-c1c(OC)cccc1OC` (single isomer, unassigned) [Example 363, 2-(1-(1-(2,6-dimethoxyphenyl)-2-(ethoxymethyl)-6-hydroxy-4-oxo-1,4-dihydropyrimidine-5-carbonyl)pyrrolidin-3-yl)benzonitrile], for which, under setting [1], the EC50 was 0.01 to 10 nM. Consider `CCCCc1nc(=O)c(C(=O)N2CCC(c3ccccc3C#N)C2)c(O)n1-c1c(OC)cccc1OC` (single isomer, unassigned) [Example 364, 2-(1-(2-butyl-1-(2,6-dimethoxyphenyl)-6-hydroxy-4-oxo-1,4-dihydropyrimidine-5-carbonyl)pyrrolidin-3-yl)benzonitrile], for which, under setting [1], the EC50 was 0.01 to 10 nM. For `CCCCc1nc(=O)c(C(=O)N2CCC(c3ccccc3C#N)C2)c(O)n1-c1c(OC)cccc1OC` (single isomer, unassigned) [Example 365, 2-(1-(2-butyl-1-(2,6-dimethoxyphenyl)-6-hydroxy-4-oxo-1,4-dihydropyrimidine-5-carbonyl)pyrrolidin-3-yl)benzonitrile], the EC50 under setting [1] was in the range of 0.01 to 10 nM. On to `CCCCc1nc(=O)c(C(=O)N2CCC(c3ncccc3F)C2)c(O)n1-c1c(OC)cccc1OC` (single isomer, unassigned) [Example 366, 2-butyl-1-(2,6-dimethoxyphenyl)-5-(3-(3-fluoropyridin-2-yl)pyrrolidine-1-carbonyl)-6-hydroxypyrimidin-4(1H)-one], for which the EC50 under setting [1] lay in the range of 0.01 to 10 nM. Turning to `CCCCc1nc(=O)c(C(=O)N2CCC(c3ncccc3F)C2)c(O)n1-c1c(OC)cccc1OC` (single isomer, unassigned) [Example 367, 2-butyl-1-(2,6-dimethoxyphenyl)-5-(3-(3-fluoropyridin-2-yl)pyrrolidine-1-carbonyl)-6-hydroxypyrimidin-4(1H)-one], the EC50 under setting [2] is 0.01 to 10 nM. As to `COc1cccc(OC)c1-n1c(COC(C)(C)C)nc(=O)c(C(=O)N2CCC(c3ccccc3C#N)C2)c1O` (single isomer, unassigned) [Example 368, 2-(1-(2-(tert-butoxymethyl)-1-(2,6-dimethoxyphenyl)-6-hydroxy-4-oxo-1,4-dihydropyrimidine-5-carbonyl)pyrrolidin-3-yl)benzonitrile], under setting [2], the EC50 was in the range of 0.01 to 10 nM. Still for that read-out and setting: to `COc1cccc(OC)c1-n1c(COC(C)(C)C)nc(=O)c(C(=O)N2CCC(c3ccccc3C#N)C2)c1O` (single isomer, unassigned) [Example 369, 2-(1-(2-(tert-butoxymethyl)-1-(2,6-dimethoxyphenyl)-6-hydroxy-4-oxo-1,4-dihydropyrimidine-5-carbonyl)pyrrolidin-3-yl)benzonitrile] belongs 0.01 to 10 nM; to `CCCCc1nc(=O)c(C(=O)N2CCC(c3ccc(F)cn3)C2)c(O)n1-c1c(OC)cccc1OC` (single isomer, unassigned) [Example 370, 2-butyl-1-(2,6-dimethoxyphenyl)-5-(3-(5-fluoropyridin-2-yl)pyrrolidine-1-carbonyl)-6-hydroxypyrimidin-4(1H)-one], 0.01 to 10 nM. For the molecule `CCCCc1nc(=O)c(C(=O)N2CCC(c3ccc(F)cn3)C2)c(O)n1-c1c(OC)cccc1OC` (single isomer, unassigned) [Example 371, 2-butyl-1-(2,6-dimethoxyphenyl)-5-(3-(5-fluoropyridin-2-yl)pyrrolidine-1-carbonyl)-6-hydroxypyrimidin-4(1H)-one], under setting [2], the EC50 lay in the range of 0.01 to 10 nM.

Consider `CCOCc1nc(=O)c(C(=O)N2CCC(c3ncc(F)cc3F)C2)c(O)n1-c1c(OC)cccc1OC` (single isomer, unassigned) [Example 372, 5-(3-(3,5-difluoropyridin-2-yl)pyrrolidine-1-carbonyl)-1-(2,6-dimethoxyphenyl)-2-(ethoxymethyl)-6-hydroxypyrimidin-4(1H)-one], for which the EC50 under setting [2] fell in the range of 0.01 to 10 nM.

On to `CCCCc1nc(=O)c(C(=O)N2CCC(c3ccc(Cl)cn3)C2)c(O)n1-c1c(OC)cccc1OC` (stereo not drawn) [Example 1, 2-Butyl-5-(3-(5-chloropyridin-2-yl)pyrrolidine-1-carbonyl)-1-(2,6-dimethoxyphenyl)-6-hydroxypyrimidin-4(1H)-one], for which the half-maximal effective concentration (EC50) fell in the range of 0.01 to 10 nM. For the molecule `CCCCc1nc(=O)c(C(=O)N2CC[C@H](c3ccccc3)C2)c(O)n1-c1c(C2CC2)cccc1C1CC1` [Example 2, (R)-2-Butyl-1-(2,6-dicyclopropylphenyl)-6-hydroxy-5-(3-phenylpyrrolidine-1-carbonyl)pyrimidin-4(1H)-one], the EC50 under setting [3] lay in the range of 0.01 to 10 nM.

For `CCOCc1nc(=O)c(C(=O)N2CCC(c3ccccn3)C2)c(O)n1-c1c(OC)cccc1OC` (stereo not drawn) [Example 3, 1-(2,6-Dimethoxyphenyl)-2-(ethoxymethyl)-6-hydroxy-5-(3-(pyridin-2-yl)pyrrolidine-1-carbonyl)pyrimidin-4(1H)-one], the EC50 under setting [3] was in the range of 0.01 to 10 nM. With `COc1cccc(OC)c1-n1c(CCC2CC2)nc(=O)c(C(=O)N2CC[C@@H](c3ccccc3)C2)c1O` [Example 4, (S)-2-(2-Cyclopropylethyl)-1-(2,6-dimethoxyphenyl)-6-hydroxy-5-(3-phenylpyrrolidine-1-carbonyl)pyrimidin-4(1H)-one], the EC50 under setting [3] lay in the range of 0.01 to 10 nM.

On to `COc1ccccc1C1CCN(C(=O)c2c(O)n(-c3c(OC)cccc3OC)c(-c3cncc(C)c3)nc2=O)C1` (stereo not drawn) [Example 7, 1-(2,6-dimethoxyphenyl)-6-hydroxy-5-(3-(2-methoxyphenyl)pyrrolidine-1-carbonyl)-2-(5-methylpyridin-3-yl)pyrimidin-4(1H)-one], for which the EC50 under setting [3] was 0.01 to 10 nM. With `COc1cccc(OC)c1-n1c(COC(C)C)nc(=O)c(C(=O)N2CC[C@H](c3ccccc3)C2)c1O` [Example 12, (R)-1-(2,6-dimethoxyphenyl)-6-hydroxy-2-(isopropoxymethyl)-5-(3-phenylpyrrolidine-1-carbonyl)pyrimidin-4(1H)-one], the EC50 under setting [4] is 0.01 to 10 nM.

Regarding `COc1cccc(OC)c1-n1c(CCC(C)C)nc(=O)c(C(=O)N2CC[C@H](c3ccccc3)C2)c1O` [Example 14, (R)-1-(2,6-dimethoxyphenyl)-6-hydroxy-2-isopentyl-5-(3-phenylpyrrolidine-1-carbonyl)pyrimidin-4(1H)-one], the EC50 under setting [4] was 0.01 to 10 nM. As to `COc1cccc(OC)c1-n1c(COC2CC2)nc(=O)c(C(=O)N2CCC(c3cccc(F)c3)C2)c1O` (stereo not drawn) [Example 15, 2-(cyclopropoxymethyl)-1-(2,6-dimethoxyphenyl)-5-(3-(3-fluorophenyl)pyrrolidine-1-carbonyl)-6-hydroxypyrimidin-4(1H)-one], the EC50 under setting [4] was in the range of 0.01 to 10 nM. On to `C=CCCc1nc(=O)c(C(=O)N2CC[C@@H](c3ccccc3)C2)c(O)n1-c1c(OC)cccc1OC` [Example 16, (S)-2-(but-3-en-1-yl)-3-(2,6-dimethoxyphenyl)-6-hydroxy-5-(3-phenylpyrrolidine-1-carbonyl)pyrimidin-4(3H)-one], for which the EC50 lay within 0.01 to 10 nM. For the molecule `CCc1cccc(CC)c1-n1c(COC(C)C)nc(=O)c(C(=O)N2CC[C@H](c3ccccc3)C2)c1O` [Example 17, (R)-3-(2,6-diethylphenyl)-6-hydroxy-2-(isopropoxymethyl)-5-(3-phenylpyrrolidine-1-carbonyl)pyrimidin-4(3H)-one], the EC50 under setting [4] was 0.01 to 10 nM.
